Tests used:
FSHR = biological target: T1, FSHR (Homo sapiens, UniProt P23945); test: EC50 of cyclic AMP production in CHO FSHR cells + EC20 FSH (Assay A); assay type: cell-based; conditions: CHO-FSHR-LUC cells, 0.265 pM FSH (EC20), cAMP HTRF, 1 h
T1 construct: expressed in transfected cells; host or cells: CHO (Cho-FSHR-LUC-1-1-43)
T1 sequence (P23945 18-695): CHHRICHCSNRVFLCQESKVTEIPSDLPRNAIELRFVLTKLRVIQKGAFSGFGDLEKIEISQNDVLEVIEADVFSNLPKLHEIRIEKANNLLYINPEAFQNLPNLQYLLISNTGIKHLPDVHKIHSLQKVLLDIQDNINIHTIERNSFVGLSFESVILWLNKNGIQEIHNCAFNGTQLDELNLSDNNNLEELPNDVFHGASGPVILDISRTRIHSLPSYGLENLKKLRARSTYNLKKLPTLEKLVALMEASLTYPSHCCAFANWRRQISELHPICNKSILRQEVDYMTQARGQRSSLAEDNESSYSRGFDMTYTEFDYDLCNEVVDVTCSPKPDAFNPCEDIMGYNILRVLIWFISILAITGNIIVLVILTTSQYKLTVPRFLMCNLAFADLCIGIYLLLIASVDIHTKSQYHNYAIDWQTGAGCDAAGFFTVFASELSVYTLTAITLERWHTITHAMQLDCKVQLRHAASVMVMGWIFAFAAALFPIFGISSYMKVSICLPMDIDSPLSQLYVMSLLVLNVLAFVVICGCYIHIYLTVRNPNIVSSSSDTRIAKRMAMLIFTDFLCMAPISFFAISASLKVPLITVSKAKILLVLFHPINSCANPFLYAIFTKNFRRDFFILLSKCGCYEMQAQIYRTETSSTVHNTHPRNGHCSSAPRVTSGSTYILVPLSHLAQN
Description: EC50 of Cyclic AMP Production in CHO FSHR Cells+EC20 FSH (Assay A)
2500 Cho-FSHR-LUC-1-1-43 cells were plated per well in 5 μl of phenol red free DMEM/F12+1% FBS. Cells were plated in 384 well, solid white low volume plates (Greiner 784075) by Multidrop. Cells were assayed by adding 100 μl of 2×EC20 FSH/IBMX in DMEM/F12+0.1% BSA) by Multidrop to 2 μl of test compound stamped in 384 well plates (compounds are diluted 1:50). The final FSH concentration was 0.265 pM, and the final IBMX concentration was 200 μM. The compound plate map was as follows: Column 1: 2 μl of DMSO; Column 2: 2 μl of DMSO; Columns 3-12 and 13-24: 2 μl of test compound, diluted 1:4 in 100% DMSO, or 2 μl of FSH, diluted 1:4 in DMEM/F12+0.1% BSA. The starting concentration for FSH was 50 nM (final concentration was 0.5 nM). Furthermore, Column 23 contained 2 μl of EC100 FSH reference (100×) (diluted in DMEM/F12+0.1% BSA) at a final concentration of 0.5 nM, and Column 24 contained 2 μl of 1 mM AS707664/2 reference compound 2. 5 μl of compound+EC20 FSH mixture were transferred to cell plates (1:2 dilution into 5 μl of cell media). The plates were incubated at 37° C. for 1 h. 10 μl of mixed HTRF (CisBio #62AM4PEC) reagents were added per well and incubated at room temperature for 1 h. The plates were read on Envision using the cAMP HTRF—low volume 384 well protocol. The readout was the calculated fluorescence ratio (665 nm/620 nm).

[1] = biological target: T2, follicle-stimulating hormone (FSH) receptor (Rattus norvegicus, UniProt P20395); test: Rat granulosa EC50 FSH (Assay B); assay type: cell-based; conditions: rat granulosa cells; for EC50: per Yanofsky et al. 2006
T2 construct: endogenous in cells; host or cells: rat granulosa cells
T2 sequence (P20395 18-692): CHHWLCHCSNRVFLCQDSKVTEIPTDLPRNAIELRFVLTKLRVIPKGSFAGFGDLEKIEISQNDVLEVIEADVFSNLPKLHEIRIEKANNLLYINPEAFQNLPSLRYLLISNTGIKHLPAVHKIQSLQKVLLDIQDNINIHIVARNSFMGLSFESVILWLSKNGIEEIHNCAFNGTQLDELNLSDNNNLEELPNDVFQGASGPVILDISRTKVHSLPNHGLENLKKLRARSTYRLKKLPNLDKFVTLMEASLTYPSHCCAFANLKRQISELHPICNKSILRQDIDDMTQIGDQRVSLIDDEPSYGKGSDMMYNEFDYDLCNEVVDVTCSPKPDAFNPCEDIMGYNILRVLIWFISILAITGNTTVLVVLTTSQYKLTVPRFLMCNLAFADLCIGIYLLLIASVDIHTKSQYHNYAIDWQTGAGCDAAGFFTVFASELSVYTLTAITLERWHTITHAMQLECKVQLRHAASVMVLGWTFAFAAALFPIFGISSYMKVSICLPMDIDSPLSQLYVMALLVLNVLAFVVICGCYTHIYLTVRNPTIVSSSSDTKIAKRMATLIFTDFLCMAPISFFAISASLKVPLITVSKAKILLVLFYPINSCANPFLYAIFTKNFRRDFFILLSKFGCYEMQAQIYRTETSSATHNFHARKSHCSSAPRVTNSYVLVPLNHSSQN
Description: Rat Granulosa EC50 FSH (Assay B)
The assay was performed pursuant to the teaching of Yanofsky et al. (2006) Allosteric activation of the follicle-stimulating hormone (FSH) receptor by selective, nonpeptide agonists. JBC 281(19): 13226-13233, which is incorporated by reference in the disclosure of the invention.

SMILES | EC50 (FSHR) | Assay B: value given in % (rat granulosa) ([1]; meaning of % not stated) | EC50 [1]
COc1ccc(C2=NN(C(=O)[C@@H](OC)c3ccccc3)CC2)cc1OC [Compound 292] | 29 µM | 186.00% | –
COc1ccc(C2=NN(C(=O)c3cccc(Oc4ccccc4)c3)CC2)cc1OC [Compound 70] | 39 µM | – | 110 nM
COc1ccc(C2=NN(C(=O)c3cccc(C(F)(F)F)c3)C(C)(C)C2)cc1OC [Compound 234, [3-(3,4-Dimethoxy-phenyl)-5,5-dimethyl-4,5-dihydro-pyrazol-1-yl]-(3-trifluoromethyl-phenyl)-methanone] | 22.4 µM | – | 699 nM
COc1ccc(C2=NN(C(=O)c3cccc(Br)c3)CC2)cc1OC [Compound 61] | 9.75 µM | – | 465 nM
COc1ccc(C2=NN(C(=O)c3ccc4c(c3)OCO4)CC2)cc1OC [Compound 3] | 40.3 µM | – | 656 nM
COc1ccc(C2=NN(C(=O)c3ccc4c(c3)OCO4)C(C)(C)C2)cc1OC [Compound 131, [1,3]Dioxol-5-yl-[3-(3,4-dimethoxy-phenyl)-5,5-dimethyl-4,5-dihydro-pyrazol-1-yl]-methanone] | 23 µM | – | 413 nM
COc1ccc(C2=NN(C(=O)c3ccc(F)c(Cl)c3)C(C)(C)C2)cc1OC [Compound 237, (3-Chloro-4-fluoro-phenyl)-[3-(3,4-dimethoxy-phenyl)-5,5-dimethyl-4,5-dihydro-pyrazol-1-yl]-methanone] | 35 µM | – | 598 nM
COc1ccc(C2=NN(C(=O)c3ccc(C)c(F)c3)CC2)cc1OC [Compound 136] | 30 µM | – | 106 nM
COc1ccc(C2=NN(C(=O)c3cccc(C)c3)C(C)(C)C2)cc1OC [Compound 232, [3-(3,4-Dimethoxy-phenyl)-5,5-dimethyl-4,5-dihydro-pyrazol-1-yl]-m-tolyl-methanone] | 38.7 µM | – | 572 nM
COc1ccc(C2=NN(C(=O)c3ccc(C)cc3)C(C)(C)C2)cc1OC [Compound 235, [3-(3,4-Dimethoxy-phenyl)-5,5-dimethyl-4,5-dihydro-pyrazol-1-yl]-p-tolyl-methanone] | 35.7 µM | – | 538 nM
COc1ccc(C2=NN(C(=O)c3cccc(F)c3)C(C)(C)C2)cc1OC [Compound 129, [3-(3,4-Dimethoxy-phenyl)-5,5-dimethyl-4,5-dihydro-pyrazol-1-yl]-(3-fluoro-phenyl)-methanone] | 35 µM | – | 363 nM
COc1ccc(C2=NN(C(=O)c3cccc(OC(F)(F)F)c3)C(C)(C)C2)cc1OC [Compound 231, [3-(3,4-Dimethoxy-phenyl)-5,5-dimethyl-4,5-dihydro-pyrazol-1-yl]-(3-trifluoromethoxy-phenyl)-methanone] | 23.8 µM | – | 1150 nM
COc1ccc(C2=NN(C(=O)c3cccc(OC(C)(F)F)c3)CC2)cc1OC [Compound 67] | 21 µM | – | 814 nM
COc1ccc(C2=NN(C(=O)c3ccc(Oc4ccccc4)cc3)C(C)(C)C2)cc1OC [Compound 230, [3-(3,4-Dimethoxy-phenyl)-5,5-dimethyl-4,5-dihydro-pyrazol-1-yl]-(4-phenoxy-phenyl)-methanone] | 2.2 µM | – | 128 nM
COc1ccc(C2=NN(C(=O)c3cccc(C(F)(F)F)c3)CC2)cc1OC [Compound 64] | 11 µM | – | 348 nM
COc1ccc(C2=NN(C(=O)c3cccc(F)c3)CC2)cc1OC [Compound 1] | 16.7 µM | – | 878 nM

From patent US9517227B2, “Dihydropyrazoles” (Merck Patent GmbH, priority 2011, dated 2016)
